How the values were obtained:
[1] = Ex vivo fluorescence imaging of dissected tumors, tissues and organs (distribution); type: in vivo, BALB/c male nude mice; conditions: 22Rv1 tumor-bearing mice, 0.5 mg/kg tail vein, 30, 60, 120 min
Experimental: (§1) In vivo fluorescence imaging was performed using the French Biospace Lab in vivo optical imaging system, the PHOTON IMAGER OPTIMA multidimensional real-time awake animal in vivo optical imaging system software was used for analysis, and the FITC exclusive filter was used to collect the fluorescence of PSMA-FITC. All images were collected using the same parameters (lamp voltage, filter, exposure height, exposure time, and field of view). The collected images were processed in a unified manner, and the number of photons per second per centimeter squared per steradian (ph/s/cm^2/sr) was used for analysis. 22Rv1 tumor-bearing mice in the nonblocking group (n = 5) and PC3 tumor-bearing mice (n = 5) were injected with PSMA-FITC (0.5 mg/kg) through the tail vein, and fluorescence imaging was performed at different time points after injection. The 22Rv1 tumor-bearing mice (n = 5) in the blocking group were injected with a mixture of 2-PMPA (2 mg/kg) and PSMA-FITC (0.5 mg/kg), and fluorescence imaging was performed 60 min after the injection. Another 9 22Rv1 tumor-bearing mice were divided into three groups (3/group), PSMA-FITC (0.5 mg/kg) was injected into the tail vein, and the mice were euthanized 30, 60, or 120 min after injection. The tumors, tissues, and organs were dissected, and a fluorescence imaging system was used for in vitro imaging. The ROI was delineated, and the average fluorescence intensity reported.

PSMA(+) LNCaP cells = assay: In vitro confocal fluorescence imaging, cell uptake; type: cell-based, human
Experimental: (§2) Both the LNCaP cells and PC3 cells were grown in a T25 cell culture flask (Corning Inc., Corning, NY, USA). The cultured LNCaP cells and PC3 cells were inoculated into a confocal dish and placed in an incubator at 37 °C/5% CO2 for 24 h. The medium was changed 2 h before the cell uptake experiment. The medium was removed, the flask rinsed once with PBS, and 5 μg of PSMA-FITC (100 μl) was added to each dish, which was then filled with medium to a final volume of 2 ml. The cells were incubated in an incubator for 60 min, washed 4 times with PBS buffer containing 0.2% BSA. Add 450 μl 4% paraformaldehyde to fix the cells for 10 min then rinse with PBS for four times. Cell nucleus were stained with 450 μl Hoechst33342 for 10 min and rinsed with PBS for four times. Add 500 μl PBS before observation. The cells were observed under confocal microscope (Olympus FV 1000) in dark room. In the blocking group, the LNCaP cells were pretreated with 2-PMPA (20 μg) for 30 min, and then PSMA-FITC was added and incubated for 60 min. The steps are the same as described above in the dark.

PSMA(−) PC3 cells = assay: as above; type: cell-based, human; conditions: 5 μg PSMA-FITC, 37 °C, 60 min
Experimental: as §2

[2] = Acute toxicity test (HE staining of organs); type: in vivo, ICR male mice; conditions: 100 mg/kg tail vein, organs collected 7 days later
Experimental: ICR male mice (approximately 3–4 weeks old, with a body weight of 12–16 g) were injected with PSMA-FITC (100 mg/kg) through the tail vein, and organs were collected 7 days later. The organs were sectioned and stained with HE. The control group was injected with the same volume of normal saline. The steps are the same as described above.

PSMA (−) PC3 tumor = assay: In vivo fluorescence imaging of tumor-bearing mice; design: species or system BALB/c male nude mice; conditions: 0.5 mg/kg tail vein, compared with 22Rv1 tumor-bearing mice
Experimental: (§3) All animal procedures were performed in accordance with the protocol approved by the Animal Care and Use Committee of the PLA General Hospital. BALB/c male nude mice (approximately 3–4 weeks old, with a body weight of 13–15 g) were purchased from Charles River Laboratories (Beijing, China). Then, 0.1 ml (approximately 5 × 10^6 cells) of 22Rv1 cell suspension was subcutaneously injected into the right shoulder of each mouse to form an 22Rv1 tumor xenograft. Vernier calipers were used to measure the length and shortest diameter of the tumor, and the tumor volume was estimated according to the formula (V = 1/2 × long diameter × shortest diameter^2). Fluorescence imaging was performed in vivo and in vitro when the tumor volume reached 200–300 mm^3. The PC3 cell planting method is the same as 22Rv1 cell planting method.
as §1
(§4) All measured values are expressed as the means ± standard deviation. Independent sample t-test was used for statistical analysis, and P < 0.05 was considered statistically significant. To clarify tumor contrast, the region of interest (ROI) was delineated, and the mean fluorescence intensity of tumor tissue (T) and background (B) was collected. TBR was used to represent tumor-background contrast. Normal muscle tissue was selected as the background to outline.

22Rv1 tumor xenograft = assay: In vivo fluorescence imaging of tumor-bearing mice; design: species or system BALB/c male nude mice; conditions: for tumor-background ratio (TBR): 60 min after injection, n = 5
Experimental: as §3, §1, §4

[3] = 0.5 mg/kg tail vein, 22Rv1 tumor-bearing mice

Compound: O=C(O)CCC(NC(=O)NC(CCCCNC(=O)CCCCCNC(=S)Nc1ccc2c(c1)C(=O)OC21c2ccc(O)cc2Oc2cc(O)ccc21)C(=O)O)C(=O)O (stereo not drawn) [PSMA-FITC]
- fluorescence intensity of liver and small intestine (ex vivo) [1]: strong fluorescence intensity
- fluorescence intensity of the bladder (ex vivo) [1]: obviously at a high level
- uptake by the kidney (ex vivo fluorescence) [1]: higher than that measured in other normal organs
- fluorescence signal in cells (confocal microscopy) (PSMA(+) LNCaP cells; LNCaP cells pretreated with 2-PMPA (20 μg) for 30 min, then PSMA-FITC 60 min): negligible fluorescence signaling
- fluorescence signal in cells (confocal microscopy) (PSMA(+) LNCaP cells; LNCaP cells, 5 μg PSMA-FITC, 37 °C, 60 min, no blocking): Significant fluorescence signals
- fluorescence signal in cells (confocal microscopy) (PSMA(−) PC3 cells): negligible fluorescence signaling
- organ damage (histopathology, HE staining) [2]: not damaged
- tumor uptake of the probe (PSMA (−) PC3 tumor): significantly lower than that of 22Rv1 tumor-bearing mice
- time of highest tumor-background contrast after injection (22Rv1 tumor xenograft; [3]): 60 min
- time to tumor targeting after injection (22Rv1 tumor xenograft; [3]): ≤ 30 min
- tumor-background ratio (TBR) (22Rv1 tumor xenograft; blocking group, coinjection of 2-PMPA 2 mg/kg with PSMA-FITC 0.5 mg/kg): 0.44 ± 0.13
- tumor-background ratio (TBR) (22Rv1 tumor xenograft; nonblocking group, PSMA-FITC 0.5 mg/kg tail vein): 3.45 ± 0.31

— paper PMC8810462, “Targeted fluorescent imaging of a novel FITC-labeled PSMA ligand in prostate cancer” (Amino Acids, 2021)
